Measured values reported in patent US20220016049A1, “TISSUE REPAIR” (Regenall Limited, priority 2019, published 2022).

Assays:
Spinal cord injury = assay: Patient-reported outcome measure, spinal cord injury, recovery following treatment with vitamin A; type: in vivo, human
Source text: Patient-Reported Outcome Measure
Spinal Cord Injury—Recovery Following Treatment with Vitamin A
Vitamin A 50,000 IU (from Retinyl palmitate and fish liver oil)
Starting in October 2018. For three months taking vitamin A 10,000×3. Increasing in end January 2019 10,000×5.
Vitamin A (from cod liver oil and vitamin A palmitate)
For 3 months 3 tablets a day and for 3 months 5 tablets a day
21 years later in February 2019
I take 50,000 IU in one administration in the morning daily
Continuing: Almost 2 months

[1] = horse; cited from earlier work
Tendon injury = Tendon injury in a horse, recovery following treatment with vitamin A (case report); type: in vivo; conditions: retinyl palmitate oral 750,000 IU twice daily, at least 4 weeks
Source text: Tendon Injury—Recovery Following Treatment with Vitamin A [table] [table] Treatment with Vitamin A was initiated approximately 20 days after the initial injury. Retinyl palmitate (93.8% Retinol Equivalent) Oral 750,000 IU […] Continuing (at least 4 weeks) Functional recovery has been good considering the severity of the lesion. […] It is not uncommon for such lesions to take between 12 to 18 months to heal.

Substance: Vitamin A
- Pain reduction (right lower back) (Spinal cord injury; Human Subject 1, injury 1963 (T4), oral 50,000 IU once daily, 3 months, started 56 years after injury): 10-15%
- Duration of pain (Spinal cord injury; Human Subject 1, oral 50,000 IU once daily, 3 months): much less
- First recovery found (walking control, balance) (Spinal cord injury; Human Subject 2, spinal stenosis, both legs paralyzed, oral 30,000 IU per day for 3 months from October 2018): more walking control and balance
- Strength, balance and movement control (Spinal cord injury; Human Subject 2, March 2019, oral 50,000 IU per day from end of January 2019): much stronger, more balanced, more movement control
- Walking without any support on even level (Spinal cord injury; Human Subject 2, beginning of April 2019, oral 50,000 IU per day): 30-50 meters
- Improvement of pain level (Spinal cord injury; Human Subject 3, disc/nerve pain around knee, oral 50,000 IU daily, 4-5 months): 80%
- Neck flexibility (Spinal cord injury; Human Subject 4, injury at C4/C5 in 1998, oral 50,000 IU daily, almost 2 months, started 21 years after injury): much more flexible
- Neck aching (Spinal cord injury; Human Subject 4, oral 50,000 IU daily, almost 2 months): largely disappeared
- Vitamin A toxicity level [1]: around 1,000 IU/kg body weight (BW)/day
- Functional recovery (Tendon injury; Horse subject 1 (polo pony, 14 years), started approximately 20 days after injury): good
- Size of the lesion (ultrasonography) (Tendon injury; Horse subject 1): good reduction in the size of the lesion
